This note sets out measurements from PMC10069031 (European Journal of Medical Research, 2023).

The subject of experiment [1] is ERK1/2. In words: Inhibition of ERK activation in CSF1-stimulated RAW264.7 cells (western blot). It counts as cell-based, mouse. Conditions: Mus musculus, mean ± SD (replicates), read-out: Mean kinase IC50 values: P(T185,202;Y187,204) ERK1/2 [WB]. As for the experimental part: (§1) RAW264.7 cells (10^6) were seeded into cell culture dishes 6 cm in diameter and incubated in 4 mL RPMI/10% fetal bovine serum (Biochrom) for 24 h at 37 °C in a humidified 5% CO2 atmosphere. Cells were washed once with phosphate-buffered saline (PBS) and starved in 3 mL RPMI/0.1% bovine serum albumin for another 24 h. Cells were then treated for 1 h at 37 °C with drugs at the indicated final concentrations, with 0.5% DMSO as vehicle control, or left untreated, and finally stimulated for 2 min at 37 °C with 100 ng/mL recombinant mouse CSF1 (R&D Systems) by adding 1 mL prewarmed starving medium containing 400 ng/mL CSF1. Dishes were placed on ice and cells were immediately washed with ice-cold PBS and lysed with 50 µL lysis buffer (50 mM HEPES pH 7.5, 150 mM NaCl, 1.5 mM MgCl2, 10% glycerol, 1% Triton X-100, 0.5% desoxycholate, 0.2% sodium dodecyl sulfate, 1 mM ethylene glycol-bis[β-aminoethyl ether]-N,N,N′,N′-tetraacetic acid, 100 mM NaF, 10 mM Na4P2O7, 1 mM Na3VO4, 1% Phosphatase Inhibitor Cocktail 3 [Sigma-Aldrich], 1 mM phenylmethyl sulfonyl fluoride, Complete Protease Inhibitor Cocktail [Roche CustomBiotech; 1 tablet/10 mL], and 50 U/mL Benzonase [Sigma-Aldrich]). Lysed cells were scraped into Eppendorf tubes, incubated on ice for 20 min, and centrifuged at 4 °C for 10 min at 13,000 rpm; supernatants (lysates) were transferred into new tubes and stored at −80 °C.
(§2) Protein concentrations were determined using Pierce bicinchoninic acid assay (Thermo Fisher Scientific) and 40 µg/lane of total lysate was separated by SDS-PAGE on 4–12% Criterion XT Bis–Tris Gels (Bio-Rad) and subsequently transferred to polyvinylidene difluoride membranes using the Trans Blot Turbo Blotting System (Bio-Rad). For antigen detection, membranes were blocked with PBS Odyssey blocking reagent (LI-COR Biosciences) for 1 h at room temperature (RT). Primary antibodies were incubated overnight at 4 °C and the fluorescent secondary antibodies were incubated for 1 h at RT. After each antibody incubation, blots were washed with PBS with 0.05% Tween 20 (Carl Roth) for 15–30 min at RT. Fluorescent signals were quantitatively captured using the Odyssey DLx Infrared Imaging System (LI-COR Biosciences) and the half-maximal inhibitory concentration (IC50) values were calculated using GraphPad software (version 7 or newer).

The subject of experiment [2] is CCL2. In words: CCL2 in blood, MC38 study. To be noted: C57BL/6 mice with subcutaneous MC38 CRC tumors. The class given is in vivo, mouse. The procedure: CCL2 was detected in plasma samples and tumor tissue using the U-Plex mouse MCP-1 ELISA Kit (Meso Scale Diagnostics) according to the manufacturer’s instructions. Measurements were performed at least in duplicate. For plasma, 12.5 µL was analyzed per animal.
Five analysis of variance (ANOVA) models were applied to analyze the log10-transformed values of the tumor weight in the CT26 study, the CCL2 levels in the tumor in the CT26 and MC38 studies, and the CCL2 levels in the PB in the CT26 and MC38 studies. The standard assumption of equal variances between treatment groups was applied for all endpoints, except for CCL2 levels in the tumor in the MC38 study, for which unequal variances between treatment groups were allowed. A negative binomial regression model was applied to evaluate percentages of CD115^hi and F4/80^hi cells within the CD45^+ cell population in PB and tumor tissue, respectively.
In vivo passaging was initiated by transplanting fragments of cryo-preserved MC38 tumors of early passages (<p5) subcutaneously into 6–8-week-old female C57BL/6 mice. Tumors were grown to a size of about 1000 mm^3, excised, cut into fragments edging approximately 2 mm, and used for further passaging in vivo for a maximum of 10 passages. Necrotic areas were removed. […]

Experiment [3] deals with T1, murine CSF1R (Mus musculus, UniProt P09581).
T1 construct: Western blot analysis of total lysates (40 µg/lane) from mouse RAW264.7 cells treated as indicated; endogenous in cells; host or cells: RAW264.7 (murine macrophages)
T1 sequence (P09581 20-977): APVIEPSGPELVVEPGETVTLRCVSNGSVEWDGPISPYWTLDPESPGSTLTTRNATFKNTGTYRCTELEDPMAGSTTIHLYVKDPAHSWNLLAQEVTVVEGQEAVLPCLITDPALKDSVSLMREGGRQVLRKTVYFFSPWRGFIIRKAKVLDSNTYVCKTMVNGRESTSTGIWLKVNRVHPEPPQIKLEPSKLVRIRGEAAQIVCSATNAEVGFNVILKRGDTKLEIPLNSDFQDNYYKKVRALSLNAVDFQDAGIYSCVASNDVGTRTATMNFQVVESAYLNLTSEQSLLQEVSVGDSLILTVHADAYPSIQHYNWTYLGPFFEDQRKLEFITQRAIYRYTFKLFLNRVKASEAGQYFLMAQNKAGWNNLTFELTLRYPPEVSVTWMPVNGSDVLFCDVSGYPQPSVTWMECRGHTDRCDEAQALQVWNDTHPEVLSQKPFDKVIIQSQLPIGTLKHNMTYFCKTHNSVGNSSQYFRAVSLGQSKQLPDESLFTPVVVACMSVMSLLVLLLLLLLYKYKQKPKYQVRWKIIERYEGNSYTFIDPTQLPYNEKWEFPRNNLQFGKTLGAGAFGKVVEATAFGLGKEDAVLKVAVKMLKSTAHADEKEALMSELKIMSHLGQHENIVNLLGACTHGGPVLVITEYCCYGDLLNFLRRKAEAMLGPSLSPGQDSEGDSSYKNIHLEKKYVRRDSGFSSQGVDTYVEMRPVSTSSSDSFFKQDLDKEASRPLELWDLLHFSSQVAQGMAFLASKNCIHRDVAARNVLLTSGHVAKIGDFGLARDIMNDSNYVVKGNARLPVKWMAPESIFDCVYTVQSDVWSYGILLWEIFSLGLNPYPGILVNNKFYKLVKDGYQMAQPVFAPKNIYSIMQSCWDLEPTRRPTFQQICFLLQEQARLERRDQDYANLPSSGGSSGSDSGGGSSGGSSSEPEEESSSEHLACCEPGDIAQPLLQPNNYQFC
In words: CSF1R inhibition in RAW264.7 cells (western blot of pCSF1R). The class given is cell-based. As for the experimental part:
as §1, §2

Structures are written as SMILES. Like-named read-outs stand apart in the source and are kept apart here.

For orientation: IC50 means the concentration that inhibits the measured activity by half. Regarding `CNC(=O)c1cc(Oc2ccc(NC(=O)Nc3ccc(Cl)c(C(F)(F)F)c3)c(F)c2)ccn1` [REG, Regorafenib], the half-inhibitory concentration (IC50) in experiment [1] is 293 ± 123 nM; in experiment [3] (RAW264.7 cells, drug 1 h, CSF1 100 ng/mL 2 min, mean ± SD (replicates), M-4, M-5 from pCSF1R bands without relating to total CSF1R, read-out: Mean kinase IC50 values: P(Y559)CSF1R [WB]), 59 ± 16 nM; in experiment [3] (RAW264.7 cells, drug 1 h, CSF1 100 ng/mL 2 min, mean ± SD (replicates), M-4, M-5 from pCSF1R bands without relating to total CSF1R, read-out: Mean kinase IC50 values: P(Y721)CSF1R [WB]), 27 ± 14 nM; in experiment [3] (approximate value of the discussion, read-out: IC50, murine CSF1R in RAW264.7 macrophages), roughly 30 nM. Also, the “CCL2 levels in blood” value in experiment [2] is “without affecting”.
